Consider 35 compounds from BindingDB's records for doi:10.1016/s0960-894x(00)00402-9 (Pharmacia, 2000).

A value given as a limit tells only on which side of the number the result lay.

In the assay the target is DNA polymerase catalytic subunit (Human cytomegalovirus) (UniProt P08546). The experiment in a line: Inhibitory activity against Human Cytomegalovirus (HCMV) polymerase.
DNA polymerase catalytic subunit (Human cytomegalovirus), sequence (P08546 whole entry, looked up): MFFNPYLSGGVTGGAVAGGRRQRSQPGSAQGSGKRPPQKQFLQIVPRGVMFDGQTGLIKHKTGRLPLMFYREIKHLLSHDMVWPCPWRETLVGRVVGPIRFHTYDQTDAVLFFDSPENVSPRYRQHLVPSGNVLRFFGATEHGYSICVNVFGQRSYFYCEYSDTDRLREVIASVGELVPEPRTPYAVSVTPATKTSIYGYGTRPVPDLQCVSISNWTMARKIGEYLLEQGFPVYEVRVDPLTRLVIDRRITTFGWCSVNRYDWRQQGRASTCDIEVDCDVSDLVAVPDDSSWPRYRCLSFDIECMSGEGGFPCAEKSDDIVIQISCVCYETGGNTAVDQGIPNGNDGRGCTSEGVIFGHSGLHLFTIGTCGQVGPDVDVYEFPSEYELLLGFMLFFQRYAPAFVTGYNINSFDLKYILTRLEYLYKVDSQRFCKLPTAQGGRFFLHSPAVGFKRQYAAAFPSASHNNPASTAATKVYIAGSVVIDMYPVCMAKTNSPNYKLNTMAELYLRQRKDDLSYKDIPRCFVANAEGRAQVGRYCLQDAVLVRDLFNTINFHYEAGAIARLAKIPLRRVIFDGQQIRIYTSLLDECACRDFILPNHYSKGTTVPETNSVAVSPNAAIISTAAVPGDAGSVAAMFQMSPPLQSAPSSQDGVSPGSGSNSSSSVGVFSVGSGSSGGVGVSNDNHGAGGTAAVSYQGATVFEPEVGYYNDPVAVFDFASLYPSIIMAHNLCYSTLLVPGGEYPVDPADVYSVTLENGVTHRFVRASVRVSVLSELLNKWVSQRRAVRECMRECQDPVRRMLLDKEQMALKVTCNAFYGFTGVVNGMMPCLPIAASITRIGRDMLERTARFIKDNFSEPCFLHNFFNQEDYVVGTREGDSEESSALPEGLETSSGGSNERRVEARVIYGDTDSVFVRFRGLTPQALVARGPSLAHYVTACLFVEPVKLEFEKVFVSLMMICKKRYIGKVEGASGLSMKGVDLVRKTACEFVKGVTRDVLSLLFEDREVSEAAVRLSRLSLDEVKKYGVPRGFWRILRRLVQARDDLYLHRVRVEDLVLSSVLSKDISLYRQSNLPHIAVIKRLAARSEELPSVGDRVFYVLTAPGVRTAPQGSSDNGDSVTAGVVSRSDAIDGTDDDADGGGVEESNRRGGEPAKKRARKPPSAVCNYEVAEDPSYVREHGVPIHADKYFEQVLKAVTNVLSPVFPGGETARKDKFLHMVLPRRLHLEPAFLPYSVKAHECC
The IC50 is the point on the concentration scale where inhibition reaches its midpoint. As to `COCOc1cc2ccccc2cc1C(=O)Nc1ccc([N+](=O)[O-])cc1` [3-Methoxymethoxy-naphthalene-2-carboxylic acid (4-nitro-phenyl)-amide], the IC50 was > 100 µM. With `COc1ccc2cc(O)c(C(=O)Nc3nc(-c4cccc([N+](=O)[O-])c4)cs3)cc2c1` [3-Hydroxy-7-methoxy-naphthalene-2-carboxylic acid [4-(3-nitro-phenyl)-thiazol-2-yl]-amide], the midpoint of inhibition, the IC50, lay at 2.4 µM.

In turn, `COc1cc2ccccc2cc1C(=O)NCc1ccc(Cl)cc1` [3-Methoxy-naphthalene-2-carboxylic acid 4-chloro-benzylamide] yielded a half-inhibitory concentration (IC50) of 8 µM.

`N#Cc1ccc(NC(=O)c2cc3ccccc3cc2O)cc1` [3-Hydroxy-naphthalene-2-carboxylic acid (4-cyano-phenyl)-amide] had a 50% inhibitory concentration (IC50) of 19 µM. Under `O=C(Nc1cccc([N+](=O)[O-])c1)c1cc2ccccc2cc1O` stands 12 µM; under `O=C(NCc1ccc(Cl)cc1)c1ccc2ccccc2c1O` [1-Hydroxy-naphthalene-2-carboxylic acid 4-chloro-benzylamide], 13 µM; under `O=C(Nc1ccc(Br)cc1)c1cc2ccccc2cc1O` [3-Hydroxy-naphthalene-2-carboxylic acid (4-bromo-phenyl)-amide], 22 µM. For `O=C(NCc1ccc([N+](=O)[O-])cc1)c1cc2cc(Br)ccc2c(Br)c1O` [4,7-Dibromo-3-hydroxy-naphthalene-2-carboxylic acid 4-nitro-benzylamide], the half-inhibitory concentration (IC50) turned out to be 2.9 µM. As for `COc1ccc2cc(O)c(C(=O)NCc3ccc(Cl)cc3)cc2c1` [3-Hydroxy-7-methoxy-naphthalene-2-carboxylic acid 4-chloro-benzylamide], the IC50 was found to be 0.76 µM.

`COc1ccc2cc(O)c(C(=O)Nc3ncc(Cl)s3)cc2c1` [3-Hydroxy-7-methoxy-naphthalene-2-carboxylic acid (5-chloro-thiazol-2-yl)-amide] returned a concentration for half-maximal inhibition (IC50) of 59 µM. To `O=C(NCc1ccc([N+](=O)[O-])cc1)c1cc2ccccc2cc1O` [3-Hydroxy-naphthalene-2-carboxylic acid 4-nitro-benzylamide] belongs 12 µM; to `COc1ccc2cc(O)c(C(=O)Nc3nc4c(Cl)cccc4s3)cc2c1` [3-Hydroxy-7-methoxy-naphthalene-2-carboxylic acid (4-chloro-benzothiazol-2-yl)-amide], 6.4 µM; to `O=C(Nc1ccc([N+](=O)[O-])cc1)c1cc2ccccc2cc1O` [3-Hydroxy-naphthalene-2-carboxylic acid (4-nitro-phenyl)-amide], 22 µM. The compound `O=C(NCc1ccc([N+](=O)[O-])cc1)c1cc2cc(O)ccc2cc1O` [3,7-Dihydroxy-naphthalene-2-carboxylic acid 4-nitro-benzylamide] came in with an IC50 of 10.6 µM.

On to `O=C(NCc1ccc(Cl)cc1)c1ccc2ccccc2c1` [Naphthalene-2-carboxylic acid 4-chloro-benzylamide], for which the IC50 is > 100 µM. In the case of `COc1ccc2cc(O)c(C(=O)Nc3nnc(Cc4ccc(Cl)cc4)s3)cc2c1` [3-Hydroxy-7-methoxy-naphthalene-2-carboxylic acid [5-(4-chloro-benzyl)-[1,3,4]thiadiazol-2-yl]-amide], the IC50 amounted to 4 µM.

Turning to `COc1ccc2cc(O)c(CNCc3ccc(Cl)cc3)cc2c1` [3-[(4-Chloro-benzylamino)-methyl]-6-methoxy-naphthalen-2-ol], the 50% inhibitory concentration (IC50) is > 100 µM. The compound `O=C(NCc1ccc(Cl)cc1)c1cc2cc(O)ccc2cc1O` [3,7-Dihydroxy-naphthalene-2-carboxylic acid 4-chloro-benzylamide] had a half-inhibitory concentration (IC50) of 2.4 µM. Consider `COc1ccc2cc(O)c(C(=O)NCc3ccc([N+](=O)[O-])cc3)cc2c1` [3-Hydroxy-7-methoxy-naphthalene-2-carboxylic acid 4-nitro-benzylamide], for which it took 0.82 µM to reach half-maximal inhibition (IC50). To `O=C(Nc1ccc(Cl)cc1)c1ccc2ccccc2c1O` [1-Hydroxy-naphthalene-2-carboxylic acid (4-chloro-phenyl)-amide] belongs 37 µM. For the compound `COc1ccc(NC(=O)c2cc3ccccc3cc2O)cc1`, the half-inhibitory concentration (IC50) turned out to be 56 µM.

The compound `COc1ccc2cc(O)c(C(=O)Nc3nc(-c4ccc(Cl)cc4)cs3)cc2c1` [3-Hydroxy-7-methoxy-naphthalene-2-carboxylic acid [4-(4-chloro-phenyl)-thiazol-2-yl]-amide] came in with a half-inhibitory concentration (IC50) of 6 µM. Under `O=C(NCc1ccc(Cl)cc1)c1cc2ccccc2cc1O` [3-Hydroxy-naphthalene-2-carboxylic acid 4-chloro-benzylamide] stands 52 µM; under `O=C(NCCc1ccc([N+](=O)[O-])cc1)c1cc2ccccc2cc1O` [3-Hydroxy-naphthalene-2-carboxylic acid [2-(4-nitro-phenyl)-ethyl]-amide], > 100 µM. In the case of `O=C(Nc1cccnc1)c1cc2ccccc2cc1O` [3-Hydroxy-naphthalene-2-carboxylic acid pyridin-3-ylamide], the IC50 was > 100 µM. To `O=C(NCc1ccc([N+](=O)[O-])cc1)c1ccc2ccccc2c1O` [1-Hydroxy-naphthalene-2-carboxylic acid 4-nitro-benzylamide] belongs 14.5 µM; to `O=C(NCc1ccc([N+](=O)[O-])cc1)c1cc2cccc(O)c2cc1O` [3,5-Dihydroxy-naphthalene-2-carboxylic acid 4-nitro-benzylamide], 3.8 µM. Under `O=C(NCCc1ccc(Cl)cc1)c1cc2ccccc2cc1O` [3-Hydroxy-naphthalene-2-carboxylic acid [2-(4-chloro-phenyl)-ethyl]-amide] stands > 100 µM; under `O=C(Nc1ccc(Cl)cc1)c1cc2ccccc2cc1O` [3-Hydroxy-naphthalene-2-carboxylic acid (4-chloro-phenyl)-amide], 69 µM.

Take `O=C(NCc1ccc(Cl)cc1)c1cc2cccc(O)c2cc1O` [3,5-Dihydroxy-naphthalene-2-carboxylic acid 4-chloro-benzylamide]: half-maximal inhibition (IC50) was put at 3.3 µM. Under `O=C(Nc1ccccn1)c1cc2ccccc2cc1O` [3-Hydroxy-naphthalene-2-carboxylic acid pyridin-2-ylamide] stands > 100 µM; under `O=C(Nc1ccc([N+](=O)[O-])cc1)c1ccc2ccccc2c1` [Naphthalene-2-carboxylic acid (4-nitro-phenyl)-amide], > 100 µM. For the compound `O=C(Nc1ccccc1)c1cc2ccccc2cc1O` [3-Hydroxy-naphthalene-2-carboxylic acid phenylamide], the concentration for half-maximal inhibition (IC50) was > 100 µM. In the case of `COc1cc2ccccc2cc1C(=O)Nc1ccc([N+](=O)[O-])cc1` [3-Methoxy-naphthalene-2-carboxylic acid (4-nitro-phenyl)-amide], the concentration for half-maximal inhibition (IC50) is > 100 µM. In the case of `Nc1cccc(NC(=O)c2cc3ccccc3cc2O)c1` [3-Hydroxy-naphthalene-2-carboxylic acid (3-amino-phenyl)-amide], the concentration for half-maximal inhibition (IC50) was > 100 µM.
